One assay has as its target T1, MMP-9 (Homo sapiens, UniProt P14780).
T1 construct: Both enzymes were commercially available as active forms (Yagai-Cosmobio); purchased Yagai-Cosmobio
The assay is described as follows: Inhibition assay against MMP-9 (fluorescent MCA-labeled substrate). Conditions: active MMP at 20 nM, 37° C., 1.5 hours. It counts as biochemical. Here is the method: (§1) Both enzymes were commercially available as active forms (Yagai-Cosmobio) and were used for inhibition assays.
(§2) Enzymatic assays were performed in accordance with C. G. Knight's method (FEBS Lett., 296(3), 263-266 (1992)). The fluorescent MCA-labeled substrate, (7-methoxycumaline-4-yl)-Pro-Leu-Gly-Leu-L-[N-(2,4-dinitrophenyl)-L-2,3-diaminopropionyl]-Ala-Arg-NH2 (Peptide Institute. Inc.) was used for measuring the kinetics of inhibition for each tested compound.
(§3) The substrate was incubated at 37° C. for 1.5 hours (MMP-1; for 24 hours) with active MMP (at 20 nM, except MMP-13 at 5 nM) and a test compound in assay buffer containing 100 mM Tris-HCl (pH7.5), 10 mM CaCl2, 100 MM NaCl and 0.05% Brij-35.

Assay [1] has as its system TNF-α release from RAW 267.4. The assay is described as follows: Inhibition ELISA for Tumor Necrosis Factor-α (TNF-α) release, LPS-stimulated RAW 267.4 cells. The class given is cell-based. Conditions: Mus musculus, RAW267.4, LPS-stimulated RAW 267.4, 24 hours, read-out: Inhibition of TNF production at 5 μM. The procedure:
RAW 267.4 (derived from mouse monocytes) was seeded in RPMI1640 containing 10% of FBS (GIBCO BRL) at 100 μL/well (5×10^5 cells/mL) onto 96-well microplates and cultured at 37° C., 5% CO2. After culturing for 4 hours, each test compound diluted in RPMI1640 was added at 50 μL/well. 15 minutes later, […] LPS (DIFCO) diluted in RPMI1640 was added at 50 μL/well and cultured for 24 hours.
TNF-α produced was measured by ELISA as usual. (For example; J. Cellular Physiol. 154, 479 (1993)) Absorbance at 450 nm (normalized at 620 nm) was measured and percentage of the amount of TNF-α release for each tested compound (n=2) was determined (0% for untreated control (n=4), and 100% for LPS stimulation (n=4)).
(ELISA stands for enzyme-linked immunosorbent assay.)

The target in another assay is T2, MMP-2 (Homo sapiens, UniProt P08253).
T2 construct: Both enzymes were commercially available as active forms (Yagai-Cosmobio); purchased Yagai-Cosmobio
T2 sequence (P08253 110-660): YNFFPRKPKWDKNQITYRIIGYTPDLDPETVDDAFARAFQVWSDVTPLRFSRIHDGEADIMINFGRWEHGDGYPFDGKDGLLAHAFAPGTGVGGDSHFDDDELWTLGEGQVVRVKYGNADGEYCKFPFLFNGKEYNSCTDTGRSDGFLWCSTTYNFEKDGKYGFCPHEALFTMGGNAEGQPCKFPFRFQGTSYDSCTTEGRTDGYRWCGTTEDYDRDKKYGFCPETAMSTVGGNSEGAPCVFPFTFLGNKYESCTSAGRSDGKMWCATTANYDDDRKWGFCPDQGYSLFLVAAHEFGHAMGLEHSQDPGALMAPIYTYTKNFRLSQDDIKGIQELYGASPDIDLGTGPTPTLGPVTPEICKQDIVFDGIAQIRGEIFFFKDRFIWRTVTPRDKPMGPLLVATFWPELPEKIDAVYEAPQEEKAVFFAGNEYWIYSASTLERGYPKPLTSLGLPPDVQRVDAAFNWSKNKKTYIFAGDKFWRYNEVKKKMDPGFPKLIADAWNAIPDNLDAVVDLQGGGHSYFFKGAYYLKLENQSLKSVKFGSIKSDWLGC
The assay is described as follows: Inhibition assay against MMP-2 (fluorescent MCA-labeled substrate). It counts as biochemical. Conditions: active MMP at 20 nM, 37° C., 1.5 hours. Here is the method: as §1, §2, §3

In assay [2] the target is T3, MMP-3 (Matrix Metalloproteinase-3, Stromelysin-1) (Homo sapiens, UniProt P08254).
T3 construct: C-terminal truncated form of human prostromelysin cDNA; made in house; host or cells: E. coli
T3 sequence (P08254 100-272 limits assumed): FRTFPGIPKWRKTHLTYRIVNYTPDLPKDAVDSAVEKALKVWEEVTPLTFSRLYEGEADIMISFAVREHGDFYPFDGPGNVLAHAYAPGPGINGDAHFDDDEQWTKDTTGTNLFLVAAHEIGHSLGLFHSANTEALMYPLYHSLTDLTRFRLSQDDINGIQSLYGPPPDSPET
Nature of the assay: Inhibition assay against MMP-3 (fluorescent MCA-labeled substrate). The class given is biochemical. As to conditions: Table 10; active MMP at 20 nM, 37° C., 1.5 hours; read-out: IC50 MMP3. Here is the method: C-terminal truncated form of human prostromelysin cDNA (proMMP-3, cDNA sequence in Nature, 348, 699-704 (1990)) was subcloned, expressed in E.coli and purified as described previously (Biochemistry 30, 6476-6483 (1991)). Activation of proMMP-3 was achieved by treatment with 1 mM 4-aminophenylmercuric acetate at 37° C. for 60 min.
as §2, §3

The target in assay [3] is T4, MMP-13 (Matrix Metalloproteinase-13, Collagenase-3) (Homo sapiens, UniProt P45452).
T4 construct: made in house; host or cells: E. coli BL21 (DE3), pET11a
The assay is described as follows: Inhibition assay against MMP-13 (fluorescent MCA-labeled substrate). Conditions: Table 10; active MMP-13 at 5 nM, 37° C., 1.5 hours; read-out: IC50 MMP13. The class given is biochemical.
Description: To subclone C-terminal truncated form of procollagenase-3 (proMMP-13) cDNA (J.Biol.Chem., 269(24), 16766-16773 (1994)), two synthetic oligonucleotide primer (5′-[…]-3′ and 5′-[…]-3′: the former incorporates sequences for a unique NdeI site (underlined) including initial methionine, and the latter has sequences for a stop codon and BamHI site (underlined)) were used with human chondrocyte cDNA library (CLONTECH) in PCR. With these primers and Pfu DNA polymerase (STRATAGENE) in PCR, 767 bp fragment was generated, which encodes 84 amino acid prosequence and 164 amino acids of mature MMP-13. The fragment was digested with NdaI and BamHI, ligated into the NdeI and BamHI sites of pET11a (STRATAGENE), transformed in E.coli BL21 (DE3) and cultured. The crude cell extract was prepared as described in Biochemistry. The extract was dialyzed against 20 mM Tris-HCl(pH7.2)/5 mM CaCl2/0.02% NaN3 and applied to a SP-Sepharose HP column (1.6×10 cm, Amersham-Pharmacia Biotech), and elution was performed with 50 mL linear gradient of 0 to 0.3 M NaCl (partially purified proMMP-13 was eluted at 0.2 M approximately). The fraction was dialyzed against 20 mM Tris-HCl(pH7.9)/5 mM CaCl2,/200 mM (NH4)2SO4/0.02% NaN3 and applied to a Phenyl Sepharose HP column (1.6×5 cm, Amersham-Pharmacia Biotech), and elution was performed with 20 mL linear gradient of 0.2 to 0 M (NH4)2SO4 (pure proHMP-13 was eluted at 50 mM approximately). The fraction was concentrated by YM-5 ultrafiltration membrane and activated with 4-aminophenylmercuric acetate and active MMP-13 was separated from propeptide fragments by gel filtration chromatography as described in Biochemistry.
as §2, §3

Consider ten compounds from patent publication US6713477B1, “Hydroxamic acid derivatives” (Sumitomo Pharmaceuticals Company, Limited, priority 2000, dated 2004).

Some results are limits rather than exact numbers.

T1 sequence (P14780 107-707 limits assumed, species assumed): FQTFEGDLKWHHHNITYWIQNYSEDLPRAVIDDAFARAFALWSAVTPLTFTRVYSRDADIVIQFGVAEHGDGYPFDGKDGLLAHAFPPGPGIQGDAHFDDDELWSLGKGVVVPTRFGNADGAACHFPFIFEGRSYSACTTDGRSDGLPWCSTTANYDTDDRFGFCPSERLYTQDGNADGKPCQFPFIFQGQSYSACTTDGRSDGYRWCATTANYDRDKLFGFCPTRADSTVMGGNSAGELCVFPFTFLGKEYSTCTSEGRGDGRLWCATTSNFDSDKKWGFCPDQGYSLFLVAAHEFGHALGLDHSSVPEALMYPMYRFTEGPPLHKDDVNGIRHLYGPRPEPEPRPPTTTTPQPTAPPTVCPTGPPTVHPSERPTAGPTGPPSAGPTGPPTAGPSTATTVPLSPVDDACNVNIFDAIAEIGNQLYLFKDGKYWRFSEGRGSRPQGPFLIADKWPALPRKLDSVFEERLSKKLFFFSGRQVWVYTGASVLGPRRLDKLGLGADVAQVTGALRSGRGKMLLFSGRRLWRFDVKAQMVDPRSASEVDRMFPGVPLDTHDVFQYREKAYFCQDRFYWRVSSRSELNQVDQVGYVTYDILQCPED

Turning to `COc1ccc(C2SCC(=O)N2[C@@H](CC(C)C)C(=O)NO)cc1` (stereo partly drawn) [Example 21, 3-[(1S)-(N-Hydroxyaminocarbonyl)-3-methylbutyl]-2-(4-methoxyphenyl)-1,3-thiazolidine-4-one], the IC50 (in general, the concentration that gives 50% inhibition) on MMP-9 was greater than 1000 nM.

As to `COc1ccc(/C=C2\Sc3ccccc3N(CC(=O)NO)C2=O)cc1` [Example 365, 2H-2(Z)-(4-Methoxybenzylidene)-1,4-benzothiazin-3(4H)-one-4-yl-acetic Acid N-Hydroxylamide], in assay [1], the inhibition (commonly the relative decrease from the control value, in per cent) at 5 µM was 20%. Besides, the IC50 against MMP-2 was 320 nM; against MMP-9, 110 nM.

For the compound `O=C(CN1C(=O)/C(=C/c2ccc(Oc3ccccc3)cc2)Sc2ccccc21)NO` [Example 368], the IC50 in assay [2] was 1500 nM; in assay [3], 36 nM; at MMP-2, 300 nM; against MMP-9 it was less than 10 nM. Further, the inhibition at 5 µM in assay [1] stood at 30%.

As to `CCCCOc1ccc(C=C2Sc3ccccc3N(CC(=O)NO)C2=O)cc1` [Example 369], the IC50 is greater than 1000 nM against MMP-2 and 200 nM against MMP-9.

Regarding `COc1ccc(CC2Sc3ccccc3N([C@H](C)C(=O)NO)C2=O)cc1` (some centres unmarked) [Example 438], the IC50 was determined as 1660 nM in assay [2] and 375 nM in assay [3].

For `COc1ccc(NC(=O)CC2Sc3ccccc3N(CC(=O)NO)C2=O)cc1` (centres unmarked) [Example 441, 2H-2-[N′-(4-Methoxyphenyl)-carbamoylmethyl]-1,4-benzothiazin-3(4H)-one-4-yl-acetic Acid N-Hydroxylamide], the IC50 in assay [2] turned out to be 2960 nM; in assay [3], 118 nM.

On to `COc1ccc(C2SC(CC(=O)NC(C)C)C(=O)N2C(Cc2ccccc2)C(=O)NO)cc1` (centres unmarked) [Example 479], for which the IC50 in assay [2] was determined as 270 nM; in assay [3] it was 19 nM.

With `CC(C)CC(C(=O)NO)N1C(=O)C(CC(=O)NCc2ccco2)[S+]([O-])C1c1ccc(Oc2ccc(Cl)cc2)cc1` (centres unmarked) [Example 739], the IC50 in assay [2] was found to be 301 nM; in assay [3], 17 nM.

As to `COCCNC(=O)CC1C(=O)N(C(CC(C)C)C(=O)NO)C(c2ccc(Oc3ccc(Cl)cc3)cc2)[S+]1[O-]` (centres unmarked) [Example 740], the IC50 came to 459 nM in assay [2] and 12 nM in assay [3].

With `COc1ccc(CC2Sc3cc(C(=O)N[C@H](CO)CC(C)C)ccc3N(CC(=O)NO)C2=O)cc1` (some centres unmarked) [Example 865], the results for the IC50 in assay [2] and in assay [3] were 53 nM and 4.9 nM, respectively.
